Test results reported in ChEMBL document CHEMBL1137332, “Crystal structures of human adenosine kinase inhibitor complexes reveal two distinct binding modes” (J Med Chem, 2006).

Biological target: Adenosine kinase (Homo sapiens, UniProt P55263)
Test: Inhibition of human cytosolic AK

Adenosine kinase, sequence (P55263 whole entry): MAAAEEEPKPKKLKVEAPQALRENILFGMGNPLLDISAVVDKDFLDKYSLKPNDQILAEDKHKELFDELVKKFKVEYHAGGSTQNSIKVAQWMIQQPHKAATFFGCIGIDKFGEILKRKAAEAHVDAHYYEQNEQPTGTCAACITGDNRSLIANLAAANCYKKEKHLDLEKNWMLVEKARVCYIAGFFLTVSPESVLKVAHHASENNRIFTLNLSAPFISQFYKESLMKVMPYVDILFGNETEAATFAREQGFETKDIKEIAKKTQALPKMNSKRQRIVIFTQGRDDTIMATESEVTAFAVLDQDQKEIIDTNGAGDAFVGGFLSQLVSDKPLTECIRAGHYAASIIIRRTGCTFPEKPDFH

Nc1ncnc(C#Cc2ccc(N3CCOCC3)nc2)c1Cc1ccccc1
IC50: 40 nM

CN(C)c1ccc(C#Cc2ncnc(N)c2-c2ccc3c(c2)OCO3)cc1
IC50: 9 nM

Nc1cc(C#Cc2ccc(N3CCOCC3)nc2)ncn1
IC50: 120 nM

Nc1ncnc(C#Cc2ccc(N3CCOCC3)nc2)c1CCCc1ccccc1
IC50: 2.5 nM

CN(C)c1ccc(-c2c(N)ncnc2C#Cc2ccc(N3CCOCC3)nc2)cc1
IC50: 68 nM

Cc1nc(N)c(-c2ccccc2)c(C#Cc2ccc(N(C)C)cc2)n1
IC50: > 1000 nM

CN(C)c1ccc(C#Cc2ncnc(N)c2-c2ccccc2)cc1
IC50: 20 nM
